Among the data in ChEMBL document CHEMBL1269006, “Synthetic human serum albumin Sudlow I binding site mimics” (J Med Chem, 2010) are EC50 and logEC50 values, retold here.

The nature of this experiment: Displacement of [3H](S)-warfarin from methacrylic acid-ethylene dimethacrylate copolymer. In general terms: In a radioligand displacement assay an active substance lowers the binding of a labelled ligand.
As a reminder, the EC50 is the concentration at which the effect is half-maximal. A high value points to lower potency in that assay. With `CC(=O)CC(c1ccc(Cl)cc1)c1c(O)c2ccccc2oc1=O` (stereo unspecified) [COUMACHLOR], the response was half-maximal at 165 µM (EC50) and the logEC50 was -3.78.

In turn, `O=c1ccc2ccccc2o1` [COUMARIN] gave an EC50 of 1290 µM and a logEC50 of -2.89.

Regarding `CC(=O)CC(c1ccccc1)c1c(O)c2ccccc2oc1=O` (stereo unspecified) [WARFARIN], a half-maximal effect (EC50) was put at 89.6 µM and the logEC50 is -4.05.
